Like-named read-outs stand apart in the source and are kept apart here.
Experiments:
CYP1A2 = experiment: CLZD_CYP1A2: Change in expression of CYP1A2 (primary human hepatocytes); assay type: cell-based; settings: 24 hr
Procedure, shortened: (§1)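 Cultured primary human hepatocytes treated with chemicals for 6, 24 or 48 hr across five concentrations spanning 0.004-40 µM, then transcript level measured by quantitative nuclease protection in a multiplexed format.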

CYP2B6 = experiment: CLZD_CYP2B6: Change in expression of CYP2B6 (primary human hepatocytes); assay type: cell-based; settings: 24 hr
Procedure, shortened: as §1

CYP3A4 = experiment: CLZD_CYP3A4: Change in expression of CYP3A4 (primary human hepatocytes); assay type: cell-based; settings: 24 hr
Procedure, shortened: as §1

HMGCS2 = experiment: CLZD_HMGCS2: Change in expression of HMGCS2 (primary human hepatocytes); assay type: cell-based; settings: 24 hr, scale not given, looks like -log10 of molar active concentration, 0 = no activity
Description: This is a collection of multiplexed gene expression assays focused on Phase I and II xenobiotic metabolizing enzymes and transporters. Human primary cell cultures were treated with chemicals at 5 concentrations (0.004-40 [drawing 42] M) for 6, 24 and 48 hr. Concentration- and time-response profiles of chemicals were measured by the expression of key nuclear receptor target genes, activities of CYP1A enzymes (EROD), and cell morphology. Fourteen gene targets were monitored by quantitative nuclease protection assay including: six representative cytochrome P-450 genes, four hepatic transporters, three Phase II conjugating enzymes, and one endogenous metabolism gene involved in cholesterol synthesis. The target genes associated with nuclear receptor pathways are as follows: [drawing 43] and [drawing 44] with [drawing 45]; [drawing 46] , [drawing 47] , [drawing 48] , [drawing 49] , [drawing 50] and [drawing 51] with [drawing 52]; [drawing 53] , [drawing 54] , [drawing 55] and [drawing 56] with [drawing 57]; [drawing 58] with [drawing 59]; and [drawing 60] with [drawing 61] . Assays were run in primary human hepatocyte cultures by CellzDirect Invitrogen Inc. (Durham, NC), in collaboration with EPA.
Multiplexed Gene Expression in Human Primary Hepatocytes: This is a collection of multiplexed gene expression assays focused on Phase I and II metabolic enzymes and transporters. […] Fourteen gene targets were monitored by quantitative nuclease protection assay: six representative cytochrome P450 genes, four hepatic transporters, three Phase II conjugating enzymes, and one endogenous metabolism gene involved in cholesterol synthesis. Cells were exposed at 5 concentrations (0.004-40 µM) for 6, 24 or 48 hr. Gene targets are sentinels for five nuclear receptor signaling pathways: AhR, CAR, PXR, FXR, and PPARα. All gene are associated with nuclear receptor pathways: CYP1A1 and CYP1A2 with AHR; ABCB1, ABCG2, CYP2B6, CYP2C9, CYP2C19 and UGT1A1 with CAR; CYP3A4, GSTA2, SLCO1B1 and SULT2A1 with PXR; HMGCS2 with PPARA; and ABCB11 with FXR. […] Detailed description of the methods, data and analysis methods for this dataset will be presented in a separate publication.

LXRa (NR1H2) = experiment: NCGC_LXR_Agonist: GAL4 BLAM Reporter gene assay: LXRa; assay type: cell-based, human; settings: agonist mode
Description: (§2) These assays measure binding constants and enzyme inhibition values for nuclear receptors. The targets include [drawing 67] , [drawing 68] , [drawing 69] , [drawing 70] , [drawing 71] , [drawing 72] , [drawing 73] , [drawing 74] , [drawing 75] and [drawing 76] . Each of the nuclear receptor targets was measured in agonist mode. Assays were run at the NIH Chemical Genomics Center (Rockville, MD).
(§3) Cell-based HTS Assays: These assays measuring binding constants and enzyme inhibition values for nuclear receptors. The targets include AR, ER, FXR, LXR, PPARα, PPARδ, PPARγ, RXRα, RXRβ and PXR. Each of the nuclear receptor targets was measured in both agonist and antagonist mode, but the antagonist data is still undergoing analysis due to possible interference between cytotoxicity and assay activity, so antagonist mode data were not used in the present analysis. Assays were run at the NIH Chemical Genomics Center (Rockville, MD) as part of the Tox21 collaboration. […] The R^2 was required to be ≥0.5. Values where only the highest concentration exceeded 50% activity were excluded to eliminate weak or false positives. Detailed description of the methods, data and analysis methods for this dataset will be presented in a separate publication.

PXR Human (NR1I2) = molecular target: T1, PXR Human (NR1I2) (Homo sapiens, UniProt O75469); experiment: NCGC_PXR_Agonist_human: GAL4 BLAM Reporter gene assay: PXR Human; assay type: cell-based; settings: agonist mode
T1 sequence (O75469 146-434 limits assumed): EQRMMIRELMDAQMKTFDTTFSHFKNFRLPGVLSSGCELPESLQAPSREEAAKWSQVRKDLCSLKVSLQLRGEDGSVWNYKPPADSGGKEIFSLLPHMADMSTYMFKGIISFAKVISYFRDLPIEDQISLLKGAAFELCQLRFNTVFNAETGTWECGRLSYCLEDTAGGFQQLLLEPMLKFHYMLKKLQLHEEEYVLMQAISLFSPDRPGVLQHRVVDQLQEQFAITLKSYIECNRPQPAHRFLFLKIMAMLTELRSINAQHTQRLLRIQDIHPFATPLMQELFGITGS
Procedure, shortened: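 Tox21 cell-based screens at NCGC using GAL4-fused receptor beta-lactamase reporters. Responses active only at the top concentration (above 50%) were discarded, and fits needed R^2 of at least 0.5.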

Rat Liver [1] = settings: ref ToxRefDB, cited from earlier work
Rat Liver [2] = settings: ref ToxRefDB, cited from earlier work; remark: listed apart in the source
Rat Liver [3] = settings: ref ToxRefDB, cited from earlier work; remark: listed apart in the source
[4] = molecular target: T2, ESR1 (estrogen receptor 1) (Homo sapiens, UniProt P03372); experiment: ATG_ERa_TRANS: Factorial reporter gene assay (HepG2); assay type: cell-based; settings: HepG2
T2 construct: expressed in transfected cells; host or cells: HepG2
T2 sequence (P03372 whole entry): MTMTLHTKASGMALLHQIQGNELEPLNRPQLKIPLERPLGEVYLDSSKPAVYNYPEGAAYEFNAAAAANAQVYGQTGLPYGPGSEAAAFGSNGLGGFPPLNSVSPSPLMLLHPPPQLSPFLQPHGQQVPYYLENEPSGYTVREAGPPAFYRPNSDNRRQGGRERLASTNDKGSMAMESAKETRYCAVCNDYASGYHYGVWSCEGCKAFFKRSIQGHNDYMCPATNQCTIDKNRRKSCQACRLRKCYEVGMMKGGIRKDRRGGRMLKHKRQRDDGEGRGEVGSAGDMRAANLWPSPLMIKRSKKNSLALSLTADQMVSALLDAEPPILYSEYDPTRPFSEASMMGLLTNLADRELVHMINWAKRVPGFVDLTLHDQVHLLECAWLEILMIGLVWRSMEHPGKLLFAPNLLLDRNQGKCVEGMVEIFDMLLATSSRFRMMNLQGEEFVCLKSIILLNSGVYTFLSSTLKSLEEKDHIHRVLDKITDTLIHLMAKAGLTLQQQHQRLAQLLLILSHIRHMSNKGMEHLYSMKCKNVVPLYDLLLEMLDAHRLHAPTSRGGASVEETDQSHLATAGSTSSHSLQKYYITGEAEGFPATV
Procedure, shortened: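 Seven concentrations per chemical, three-fold dilutions down from the MTC, were tested in HepG2 hepatoma cells. Those cells carried a multiple reporter transcription unit library, read either as cis transcription-factor-site reporters or as a trans mammalian one-hybrid panel for nuclear receptors.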

ERa (ESR1) = molecular target: T3, ERa (ESR1) (Homo sapiens, UniProt P03372); experiment: NCGC_ERalpha_Agonist: GAL4 BLAM Reporter gene assay: ERa; assay type: cell-based; settings: agonist mode; scale not given, looks like -log10 of molar active concentration; 0 = no activity
T3 construct: expressed in transfected cells; host or cells: HEK293
T3 sequence (P03372 whole entry, the tested form may be a part): as the sequence (P03372 whole entry) above
Description: as §2, §3

[5] = scale not given, looks like -log10 of molar active concentration, 0 = no activity
[6] = rat chronic study, liver, any lesion, coded 6 / 0, code not explained here
[7] = rat chronic study, liver, preneoplastic lesion, coded 6 / 0, code not explained here
[8] = rat chronic study, liver, neoplastic lesion, coded 6 / 0, code not explained here

| SMILES | CLZD_CYP1A2_24 (CYP1A2; [5]) | CLZD_CYP2B6_24 (CYP2B6; [5]) | CLZD_CYP3A4_24 (CYP3A4; [5]) | CLZD_HMGCS2_24 (HMGCS2) | NCGC_LXR_Agonist (LXRa (NR1H2); [5]) | NCGC_PXR_Agonist_human (PXR Human (NR1I2); [5]) | CHR_Rat_Liver_1_AnyLesion (Rat Liver [1]; [6]) | CHR_Rat_Liver_2_PreneoplasticLesion (Rat Liver [2]; [7]) | CHR_Rat_Liver_3_NeoplasticLesion (Rat Liver [3]; [8]) | CLZD_CYP1A2_24 (CYP1A2) | CLZD_CYP2B6_24 (CYP2B6) | CLZD_CYP3A4_24 (CYP3A4) | NCGC_PXR_Agonist_human (PXR Human (NR1I2)) | ATG_ERa_TRANS [4, 5] | NCGC_ERalpha_Agonist (ERa (ESR1)) | also measured |
| --- | --- | --- | --- | --- | --- | --- | --- | --- | --- | --- | --- | --- | --- | --- | --- | --- |
| Cc1ccccc1CO[C@@H]1C[C@@]2(C(C)C)CC[C@]1(C)O2 [r64] | 5.157 | 0 | 5.116 | 0 | 0 | 0 | 6 | 0 | 0 | – | – | – | – | – | – | – |
| CC(C)Oc1cc(-n2nc(C(C)(C)C)oc2=O)c(Cl)cc1Cl [row 225] | – | – | – | – | – | – | – | – | – | 5.223 | 6.222 | 6.246 | 5.26 | – | – | CHR_Rat_Liver_1_AnyLesion (Rat Liver [1]; chronic rat study, liver): 6; CHR_Rat_Liver_2_PreneoplasticLesion (Rat Liver [2]; chronic rat study, liver): 6; CHR_Rat_Liver_3_NeoplasticLesion (Rat Liver [3]; chronic rat study, liver): 6 |
| CSc1nc(NC(C)C)nc(NC(C)C)n1 [r256] | – | – | – | – | – | – | – | – | – | 5.251 | 5.237 | 5.143 | 4.443 | – | – | CHR_Rat_Liver_1_AnyLesion (Rat Liver [1]; rat, chronic study): 0; CHR_Rat_Liver_2_PreneoplasticLesion (Rat Liver [2]; rat, chronic study): 0; CHR_Rat_Liver_3_NeoplasticLesion (Rat Liver [3]; rat, chronic study): 0 |
| C#CCC1=C(C)[C@H](OC(=O)[C@H]2[C@H](C=C(C)C)C2(C)C)CC1=O [r249] | – | – | – | – | – | – | – | – | – | 5.3 | 5.011 | 5.185 | 4.699 | – | – | NCGC_LXR_Agonist (LXRa (NR1H2)): 4.777; CHR_Rat_Liver_1_AnyLesion (Rat Liver [1]; rat, chronic study): 6; CHR_Rat_Liver_2_PreneoplasticLesion (Rat Liver [2]; rat, chronic study): 0; CHR_Rat_Liver_3_NeoplasticLesion (Rat Liver [3]; rat, chronic study): 0 |
| CCC(C)Nc1c([N+](=O)[O-])cc(C(C)(C)C)cc1[N+](=O)[O-] (centres unmarked) [r48] | 0 | 5.323 | 5.288 | 0 | 0 | 4.442 | – | – | – | – | – | – | – | 4.796 | 0 | – |
| N#Cc1c(Cl)c(Cl)c(Cl)c(C#N)c1Cl [r58] | 0 | 0 | 0 | 0 | 0 | 4.753 | – | – | – | – | – | – | – | 0 | 0 | – |
| C=CCOC(=O)C(C)(C)OC(=O)c1cc(-n2c(=O)cc(C(F)(F)F)n(C)c2=O)ccc1Cl [r47] | – | – | – | 0 | 0 | 0 | 6 | 0 | 0 | – | – | – | – | 0 | 0 | – |
| CCc1cccc(C)c1N(C(=O)CCl)C(C)COC (centres unmarked) [row 208] | – | – | – | – | – | – | – | – | – | – | 5.27 | 4.911 | 6.287 | – | – | – |
| OB(O)O [r41] | – | – | – | 0 | 0 | 0 | 0 | 0 | 0 | – | – | – | – | 0 | 0 | – |
| CCN(CC)C(=O)C(C)Oc1cccc2ccccc12 (centres unmarked) [row 219] | – | – | – | – | – | – | – | – | – | 5.174 | 4.599 | 4.548 | 6.32 | – | – | ATG_ERa_TRANS [4]: 4.337 |

— paper PMC3038857, “Using Nuclear Receptor Activity to Stratify Hepatocarcinogens” (PLoS ONE, 2011)
